The values that follow come from patent publication US12201626B2, “Bifunctional compositions for the treatment of cancer” (ARMACEUTICA, INC., priority 2018, dated 2025).

The subject of assay [1] is Calf Thymus DNA. The assay is described as follows: UV-Visible spectrophotometric titration. The assay is classed as binding. Particulars: PND 22.8 μM, Tris/HCl buffer, CT DNA additions. Here is the method: UV-Visible measurements were taken in a Varian Cary 100 spectrophotometer. Calf Thymus (CT) DNA and buffers were purchased from Sigma Aldrich. The binding constant of PND with CT DNA was determined by absorption titration at room temperature through stepwise addition of a CT DNA solution (10.1 mM; 5 μL additions) in buffer (5 mM Tris/HCl, 50 mM NaCl, pH=7.39) over a 2 mL working solution of PND (22.8 μM) in the same buffer. Absorption spectra were recorded at 424 nm and the titration was terminated when saturation was reached. In order to determine the binding affinity, the data was fitted to the Scatchard equation r/Cf=K(n−r) (McGhee and von Hippel plots), where r is the number of moles of PND bound to 1 mol of CT DNA, n is the number of equivalent binding sites, and K is the affinity of the complex for those binding sites. Concentrations of free (Cf) and bound (Cb) complexes were calculated from Cf=C(1−α) and Cb=C−Cf, respectively, where C is the total PND concentration. The fraction of the bound complex (α) was calculated from α=(Af−A)/(Af−Ab), where Af and Ab are the absorbances of the free and fully bound drug at the selected wavelengths, and A is the absorbance at any given point during the titration. The plot of r/Cf vs. r gives the binding constant Kb as the slope of the graph. All experiments were performed in triplicate and values of Kb were averaged.

The subject of assay [2] is Calf Thymus DNA. In words: Circular dichroism spectroscopy. The assay is classed as binding. Particulars: PND/DNA molar ratios 0.03-0.3; 30 min and 20 h. Here is the method: Circular dichroism (CD) spectra measurements were taken in a JASCO-1100 spectropolarimeter equipped with a Xenon lamp (JASCO, Easton, MD). CT DNA and buffers were purchased from Sigma Aldrich. A CT DNA stock solution was prepared in Tris/HCl buffer (5 mM Tris/HCl, 50 mM NaCl, pH=7.39) and its concentration (4.325 mM) was spectrophotometrically determined using molar extinction coefficient 6600 M−1 cm−1 at 260 nm. A 150 μM dilution in Tris/HCl buffer was prepared and used for the experiments. A 2.0 mM stock solution of PND was freshly prepared in MQ water prior to use. The appropriate volume of this solution was added to 3 ml working solutions of 150 μM CT DNA to achieve molar ratios of 0.03, 0.06, 0.2 and 0.3 PND/DNA. Samples were prepared in triplicate and incubated for 30 minutes and 20 hours. All CD spectra of DNA and DNA/PND were recorded at 25° C. over the range 205-380 nm and finally corrected with a blank and noise reduction. The final data is the average of three experiments and it is expressed in millidegrees (mdegs).
(In general: Circular dichroism is widely used to follow secondary structure.)

For the compound `COC1=CC=C2Nc3cc(Cl)ccc3C(N=C3C=C(CN4CCCC4)C(=O)C(CN4CCCC4)=C3)=C2N1` [PND, 4-[(7-chloro-2-methoxy-1,5-dihydrobenzo[b][1,5]naphthyridin-10-yl)imino]-2,6-bis(pyrrolidin-1-ylmethyl)cyclohexa-2,5-dien-1-one], in the assay on Calf Thymus DNA [1], the “hypochromic effect at 424 nm” value turned out to be 39% and the “red-shift of absorbance maximum at 424 nm” value worked out at 8 nm. For the same compound, the “change of CD spectra of CT DNA” value in the assay with Calf Thymus DNA [2] is “increase the intensity of both the negative and the positive bands”.
